From patent US9695155B2, “Herbicidal substituted pyrimidinyloxy benzene compounds” (E. I. DU PONT DE NEMOURS AND COMPANY, priority 2013, dated 2017)

Assays:
rice [1] = test: Test B flooded paddy test; type: in vivo, Oryza sativa; settings: Flood, 250 g ai/ha; 0 to 100 scale where 0 is no effect and 100 is complete control
Outline: (§1)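 Visual ratings on a 0 to 100 scale, where 100 means complete control, compared treated plants with controls after 13 to 15 days in a greenhouse. Treatment went into paddy water 3 cm deep over the soil, applied to plants at the 2-leaf stage.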

Heteranthera limosa = test: Test B flooded paddy test; type: in vivo; settings: Flood, 250 g ai/ha; 0 to 100 scale where 0 is no effect and 100 is complete control
Outline: as §1

morningglory [2] = test: Test A postemergence; type: in vivo, Ipomoea spp.
Outline: (§2)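 Injury scores run from 0, no effect, to 100, complete control, judged by eye against untreated plants roughly 10 days after treatment. Chemicals carried a surfactant in a non-phytotoxic solvent and went onto loam–sand soil preemergence or onto one- to two-leaf seedlings postemergence.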

barnyardgrass [3] = test: Test C flooded paddy test; type: in vivo, Echinochloa crus-galli; settings: Flood, scale 0 to 100 (0 no effect, 100 complete control), 13 to 15 days
Outline: (§3)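 Visual injury ratings against untreated controls, taken 13 to 15 days after compound was added to paddy water standing 3 cm above the soil.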

large (Lg) crabgrass [4] = test: Test A postemergence; type: in vivo, Digitaria sanguinalis
Outline: as §2

barnyardgrass [5] = test: Test B flooded paddy test; type: in vivo, Echinochloa crus-galli; settings: Flood, 250 g ai/ha; 0 to 100 scale where 0 is no effect and 100 is complete control
Outline: as §1

velvetleaf [6] = test: Test A postemergence; type: in vivo, Abutilon theophrasti
Outline: as §2

corn [7] = test: Test A postemergence; type: in vivo, Zea mays
Outline: as §2

corn [8] = test: Test A preemergence; type: in vivo, Zea mays
Outline: as §2

pigweed [9] = test: Test A postemergence; type: in vivo, Amaranthus retroflexus
Outline: as §2

giant foxtail [10] = test: Test A preemergence; type: in vivo, Setaria faberii
Outline: as §2

velvetleaf [11] = test: Test A preemergence; type: in vivo, Abutilon theophrasti
Outline: as §2

sedge, umbrella [12] = test: Test C flooded paddy test; type: in vivo, Cyperus difformis; settings: Flood, scale 0 to 100 (0 no effect, 100 complete control), 13 to 15 days
Outline: as §3

wheat [13] = test: Test A postemergence; type: in vivo, Triticum aestivum
Outline: as §2

barnyardgrass [14] = test: Test A preemergence; type: in vivo, Echinochloa crus-galli
Outline: as §2

barnyardgrass [15] = test: Test A postemergence; type: in vivo, Echinochloa crus-galli
Outline: as §2

ducksalad = test: Test C flooded paddy test; type: in vivo, Heteranthera limosa; settings: Flood, scale 0 to 100 (0 no effect, 100 complete control), 13 to 15 days
Outline: as §3

large (Lg) crabgrass [16] = test: Test A preemergence; type: in vivo, Digitaria sanguinalis
Outline: as §2

rice [17] = test: Test C flooded paddy test; type: in vivo, Oryza sativa; settings: Flood, scale 0 to 100 (0 no effect, 100 complete control), 13 to 15 days
Outline: as §3

sedge, umbrella [18] = test: Test B flooded paddy test; type: in vivo, Cyperus difformis; settings: Flood, 250 g ai/ha; 0 to 100 scale where 0 is no effect and 100 is complete control
Outline: as §1

pigweed [19] = test: Test A preemergence; type: in vivo, Amaranthus retroflexus
Outline: as §2

morningglory [20] = test: Test A preemergence; type: in vivo, Ipomoea spp.
Outline: as §2

wheat [21] = test: Test A preemergence; type: in vivo, Triticum aestivum
Outline: as §2

giant foxtail [22] = test: Test A postemergence; type: in vivo, Setaria faberii
Outline: as §2

[23] = 125 g ai/ha, 0 to 100 scale where 0 is no effect and 100 is complete control
[24] = 500 g ai/ha, 0 to 100 scale, 0 no effect, 100 complete control
[25] = 500 g ai/ha, 0 to 100 scale, 0 no effect, 100 complete control, approx. 10 days

Cc1ccc(Oc2ncc(Cl)cn2)c(-n2cc(Br)cn2)c1 [Compound 40]
50: Plant response rating, Crabgrass, Large (large (Lg) crabgrass [4]; [23]) | Plant response rating, Velvetleaf (velvetleaf [11]; [23]) | Plant response rating, Sedge, Umbrella (sedge, umbrella [12]; 31 g ai/ha) | Barnyardgrass plant response rating (barnyardgrass [14]; [25]) | Pigweed plant response rating (pigweed [19]; [25])
20: Plant response rating, Barnyardgrass (barnyardgrass [5]) | Plant response rating, Barnyardgrass (barnyardgrass [15]; [24])
15: Plant response rating, Rice (rice [1]) | Plant response rating, Barnyardgrass (barnyardgrass [3]; 125 g ai/ha) | Plant response rating, Barnyardgrass (barnyardgrass [3]; 250 g ai/ha)
40: Plant response rating, Pigweed (pigweed [9]; [23]) | Plant response rating, Barnyardgrass (barnyardgrass [14]; [23]) | Plant response rating, Ducksalad (ducksalad; 125 g ai/ha)
70: Plant response rating, Morningglory (morningglory [2]; [23]) | Plant response rating, Crabgrass, Large (large (Lg) crabgrass [4]; [24]) | Velvetleaf plant response rating (velvetleaf [11]; [25])
60: Plant response rating, Pigweed (pigweed [9]; [24]) | Foxtail, Giant plant response rating (giant foxtail [10]; [25]) | Plant response rating, Ducksalad (ducksalad; 250 g ai/ha) | Plant response rating, Crabgrass, Large (large (Lg) crabgrass [16]; [23]) | Plant response rating, Foxtail, Giant (giant foxtail [22]; [24])
100: Plant response rating, Morningglory (morningglory [2]; [24]) | Plant response rating, Velvetleaf (velvetleaf [6]; [23]) | Plant response rating, Velvetleaf (velvetleaf [6]; [24])
10: Plant response rating, Foxtail, Giant (giant foxtail [10]; [23]) | Plant response rating, Foxtail, Giant (giant foxtail [22]; [23])
80: Plant response rating, Ducksalad (Heteranthera limosa) | Crabgrass, Large plant response rating (large (Lg) crabgrass [16]; [25]) | Plant response rating, Sedge, Umbrella (sedge, umbrella [18])
75: Plant response rating, Sedge, Umbrella (sedge, umbrella [12]; 62 g ai/ha) | Plant response rating, Sedge, Umbrella (sedge, umbrella [12]; 125 g ai/ha) | Plant response rating, Sedge, Umbrella (sedge, umbrella [12]; 250 g ai/ha)
0: Plant response rating, Barnyardgrass (barnyardgrass [3]; 31 g ai/ha) | Plant response rating, Barnyardgrass (barnyardgrass [3]; 62 g ai/ha) | Plant response rating, Corn (corn [7]; [23]) | Plant response rating, Corn (corn [7]; [24]) | Plant response rating, Corn (corn [8]; [23]) | Corn plant response rating (corn [8]; [25]) | Plant response rating, Wheat (wheat [13]; [23]) | Plant response rating, Wheat (wheat [13]; [24]) | Plant response rating, Barnyardgrass (barnyardgrass [15]; [23]) | Plant response rating, Ducksalad (ducksalad; 31 g ai/ha) | Plant response rating, Ducksalad (ducksalad; 62 g ai/ha) | Plant response rating, Rice (rice [17]; 31 g ai/ha) | Plant response rating, Rice (rice [17]; 62 g ai/ha) | Plant response rating, Rice (rice [17]; 125 g ai/ha) | Plant response rating, Rice (rice [17]; 250 g ai/ha) | Plant response rating, Pigweed (pigweed [19]; [23]) | Plant response rating, Morningglory (morningglory [20]; [23]) | Morningglory plant response rating (morningglory [20]; [25]) | Plant response rating, Wheat (wheat [21]; [23]) | Wheat plant response rating (wheat [21]; [25])
